One may read the MIC as the lowest concentration found to suppress growth.

The values below come from patent publication US8796292B2, “Selective antibacterials for clostridium difficile infections” (GLSynthesis Inc., priority 2009, dated 2014).

Structures are written as SMILES. Values after ≈ are worked out from the molar mass of the structure shown. Counter-ions that a name gives are not always drawn. Like-named read-outs stand apart in the source and are kept apart here. A value given as a limit tells only on which side of the number the result lay.

Test [1] concerns C. diff. (ATCC43255). In words: clindamycin-induced C. diff. infection model in Syrian golden hamsters. Type of test: in vivo. Particulars: 50 mg/kg PO bid for 3 days, n = 6 hamsters. The source says: Compound 359E was given orally as a suspension in 1% carboxymethylcellulose to Syrian Golden hamsters, pretreated subcutaneously with clindamycin and infected orally with C. diff. (ATCC43255) as described in Table 5.

The test system of test [2] is C. difficile. Description: agar dilution MIC assay of anaerobic bacteria. Particulars: Clostridioides difficile, read-out: MIC. Type of test: cell-based, Clostridium difficile. On the procedure:
(§1) Each compound was assayed against a panel of anaerobic bacteria in culture, consisting of Gram-positive organisms, such as Lactobacilli, Bifidobacteria, Clostridium spp., and Gram-negative bacteria, such as […] fragilis spp., according to guidelines of the Clinical and Laboratory Standards Institute (CLSI document M11-A7, CLSI, Wayne, Pa., 2007). […] One tenth mL of diluted bacteria containing 500-1000 colony-forming units (CFU) was plated and spread, and the plates incubated at 37° C. for 24-48 hours. MIC (minimum inhibitory concentration) is equivalent to the lowest concentration in μg/ml at which growth, i.e., colony formation, is not observed. […] Bacteria were assayed using a reference agar dilution method. Drug dilutions and drug-supplemented agar plates were prepared manually. The test organisms were maintained frozen at −80° C. The isolates were sub-cultured on Supplemented Brucella Agar (SBA) plates in a Bactron II anaerobic chamber and incubated for 48 hours at 35-36° C. in the Bactron II anaerobe chamber. Following inoculation, the drug-supplemented plates were incubated at 35° C. for 48 hours in the anaerobic environment (5% hydrogen, 5% carbon dioxide, 90% nitrogen) of the Bactron II. The MIC in μg/ml was read per Clinical and Laboratory Standards Institute guidelines.
For orientation: In agar dilution the substance is mixed into plates at graded concentrations.

In test [3] the test system is Ba. fragilis. Description: agar dilution MIC assay of anaerobic bacteria. Type of test: cell-based. Particulars: Bacteroides fragilis, B. fragilis, Micromyx Number 0123 (ATCC strain), Table 2. As to the method: as §1

For the molecule `CN[C@H](CC(C)C)C(=O)N[C@H]1C(=O)N[C@@H](CC(N)=O)C(=O)N[C@H]2C(=O)N[C@H]3C(=O)N[C@H](C(=O)N[C@H](C(=O)O)c4cc(O)cc(O)c4-c4cc3ccc4O)[C@H](O)c3ccc(c(Cl)c3)Oc3cc2cc(c3O[C@@H]2O[C@H](CO)[C@@H](O)[C@H](O)[C@H]2O[C@H]2C[C@](C)(N)[C@H](O)[C@H](C)O2)Oc2ccc(cc2Cl)[C@H]1O` [vancomycin HCl, reference compound], in test [1], the “% Survivors at 120 hr” value stood at 100%, the “Survivors at 24 hr” value stood at 6, the “Survivors at 48 hr” value is 6 and the “Survivors at 66 hr” value is reported as 6. In test [1], the “Survivors at 72 hr” value was 6 and the “Survivors at 96 hr” value is recorded as 6.

Take `O=c1[nH]c(NCc2ccc(Cl)c(Cl)c2)nc2ncn(CCCCN3CCOCC3)c12` [Compound 258D, 7-[4-(N-morpholinyl)butyl]-2-(3,4-dichlorobenzylamino)-6-oxopurine]: the MIC in test [2] (C. diff. Strain no. 18285, Table 4) was 8 µg/mL (≈ 17.7 µM); in test [2] (C. diff. Strain no. 19265, Table 4), 4 µg/mL (≈ 8.86 µM); in test [2] (C. diff. Strain no. 19273, Table 4), 8 µg/mL (≈ 17.7 µM); in test [2] (C. diff. Strain no. 19281, Table 4) it was 4 µg/mL (≈ 8.86 µM); in test [2] (C. diff. Strain no. 19291, Table 4) it was 4 µg/mL (≈ 8.86 µM); in test [2] (C. diff. Strain no. 19369, Table 4), 16 µg/mL (≈ 35.4 µM). Further, the MIC turned out to be 4 µg/mL (≈ 8.86 µM) in test [2] (C. diff. Strain no. 19382, Table 4); 4 µg/mL (≈ 8.86 µM) in test [2] (C. diff. Strain no. 19540, Table 4); 2 µg/mL (≈ 4.43 µM) in test [2] (C. diff. Strain no. 19580, Table 4); 4 µg/mL (≈ 8.86 µM) in test [2] (C. diff. Strain no. 19680, Table 4); 4 µg/mL (≈ 8.86 µM) in test [2] (C. diff. Strain no. 19681, Table 4); 8 µg/mL (≈ 17.7 µM) in test [2] (C. diff. Strain no. 19683, Table 4). For the same molecule, the MIC came to 8 µg/mL (≈ 17.7 µM) in test [2] (C. diff. Strain no. 19687, Table 4); 8 µg/mL (≈ 17.7 µM) in test [2] (C. diff. Strain no. 20066, Table 4); 16 µg/mL (≈ 35.4 µM) in test [2] (C. diff. Strain no. 20152, Table 4); 4 µg/mL (≈ 8.86 µM) in test [2] (C. diff. Strain no. 20307, Table 4); 4 µg/mL (≈ 8.86 µM) in test [2] (C. diff. Strain no. 20494, Table 4); 4 µg/mL (≈ 8.86 µM) in test [2] (C. diff. Strain no. 20680, Table 4). The MIC in test [2] (C. diff. Strain no. 20934, Table 4) worked out at 4 µg/mL (≈ 8.86 µM); in test [2] (C. diff. Strain no. 21099, Table 4), 2 µg/mL (≈ 4.43 µM).

`CCOCCn1cnc2nc(NCc3ccc(Cl)c(Cl)c3)[nH]c(=O)c21` [Compound 325E]: the MIC in test [2] (C. diff., Micromyx Number 3579, Table 2) is 2 µg/mL (≈ 5.23 µM); in test [2] (C. diff., Micromyx Number 3580, Table 2) it was 2 µg/mL (≈ 5.23 µM); in test [2] (C. diff., Micromyx Number 3581, Table 2), 1 µg/mL (≈ 2.62 µM); in test [2] (C. diff., Micromyx Number 3582 (ATCC strain), Table 2), 2 µg/mL (≈ 5.23 µM); in test [3], more than 32 µg/mL.
